Reference: patent US20090123907A1 (priority 2004, published 2009)

Columns and labels:
Assay type in all cases: cell-based
[1] = tested on: Staphylococcus epidermidis; assay: Colony counts of PRP samples subcultured on nutrient agar; conditions: for Colony Counts: PRP 1% citrate spiked with about 10 cfu/ml, room temperature
Procedure: In the experiment anticoagulated blood (0.4% citrate by weight) was centrifuged to produce platelet Rich Plasma (PRP). To test samples of PRP citric acid stock solution containing sufficient lysine to bring the solution pH to 7.0 was added to increase the citrate concentration to 1% by weight. Following this addition the pH of the mixture was 6.7. It will be apparent to one of skill in the art that the precise ratio of basic amino acid to citrate can be altered to adjust the pH of the either the stock solution or the final blood mixture. One sample of original PRP was used as the Normal Control, and one sample of the lysine citrate PRP was used as the Citrate Control. One sample of original PRP was inoculated with cultured Staphylococcus epidermidis to a final concentration of about 10 cfu/ml—this formed the Spiked Normal. […] The samples were incubated at room temperature for five days. Each day the number of platelets in each sample was counted; each sample was also tested for LDH (lactate dehydrogenase) and for the ability to induce a clot. Following the tests an aliquot of each sample was subcultured on nutrient agar and incubated under growth conditions.

platelets [2] = assay: Platelet rich plasma supplemented with 2% lysine citrate, 25 days storage; conditions: room temperature
From the text: […]. In this experiment plasma is centrifuged to create platelet rich plasma (PRP). […]. For the first fifteen days the platelet parameters remain essentially unchanged. During the next five day period (days 16-20) the platelet count drifts down slightly and LDH level increases slightly. During the last five days (days 21-25), the platelet count drops off rather precipitously and the LDH level rises rather steeply. Yet clotting time remains relatively constant.

platelets [3] = assay: Platelets in 2% lysine citrate and CPD, 15 days storage; conditions: PRP, CPD + 2% lysine citrate, room temperature
From the text: The second experiment was similar to the first platelet experiment reported above with the primary difference that the primary anticoagulant was CPD (citrate-phosphate-dextrose). This anticoagulant contains approximately 0.4% citrate by weight but also contains dextrose as an energy source for the platelets (and also, unfortunately, for any bacteria that may be present). […] It was believed that the CPD might further stabilize the platelets by providing an energy source.

NCCCC[C@H](N)C(=O)O.O=C(O)CC(O)(CC(=O)O)C(=O)O [Lysine Citrate, lysine citrate]
Colony Counts ([1]; Day 1): 10 | Colony Counts ([1]; Day 2): 7 | Colony Counts ([1]; Day 3): 5 | Colony Counts ([1]; Day 4): 9 | Colony Counts ([1]; Day 5): 7 | bacteria following plating onto nutrient agar ([1]; unspiked PRP 1% citrate): no bacteria | Clotting time (platelets [2]; Day 1, PRP): 30 s | Count (platelets) (platelets [2]; Day 1, PRP): 3.80 × 10^5 per μl | LDH (platelets [2]; Day 1, PRP): 106 IU/L | Clotting time (platelets [2]; Day 2, PRP): 30 s | Count (platelets) (platelets [2]; Day 2, PRP): 3.75 × 10^5 per μl | LDH (platelets [2]; Day 2, PRP): 108 IU/L | Clotting time (platelets [2]; Day 3, PRP): 30 s | Count (platelets) (platelets [2]; Day 3, PRP): 3.76 × 10^5 per μl | LDH (platelets [2]; Day 3, PRP): 109 IU/L | Clotting time (platelets [2]; Day 4, PRP): 30 s | Count (platelets) (platelets [2]; Day 4, PRP): 3.80 × 10^5 per μl | LDH (platelets [2]; Day 4, PRP): 108 IU/L | Clotting time (platelets [2]; Day 5, PRP): 31 s | Count (platelets) (platelets [2]; Day 5, PRP): 3.76 × 10^5 per μl | LDH (platelets [2]; Day 5, PRP): 108 IU/L | Clotting time (platelets [2]; Day 6, PRP): 31 s | Count (platelets) (platelets [2]; Day 6, PRP): 3.75 × 10^5 per μl | LDH (platelets [2]; Day 6, PRP): 106 IU/L | Clotting time (platelets [2]; Day 7, PRP): 32 s | Count (platelets) (platelets [2]; Day 7, PRP): 3.76 × 10^5 per μl | LDH (platelets [2]; Day 7, PRP): 109 IU/L | Clotting time (platelets [2]; Day 8, PRP): 30 s | Count (platelets) (platelets [2]; Day 8, PRP): 3.76 × 10^5 per μl | LDH (platelets [2]; Day 8, PRP): 109 IU/L | Clotting time (platelets [2]; Day 9, PRP): 31 s | Count (platelets) (platelets [2]; Day 9, PRP): 3.80 × 10^5 per μl | LDH (platelets [2]; Day 9, PRP): 108 IU/L | Clotting time (platelets [2]; Day 10, PRP): 30 s | Count (platelets) (platelets [2]; Day 10, PRP): 3.77 × 10^5 per μl | LDH (platelets [2]; Day 10, PRP): 109 IU/L | Clotting time (platelets [2]; Day 11, PRP): 29 s | Count (platelets) (platelets [2]; Day 11, PRP): 3.77 × 10^5 per μl | LDH (platelets [2]; Day 11, PRP): 109 IU/L | Clotting time (platelets [2]; Day 12, PRP): 30 s | Count (platelets) (platelets [2]; Day 12, PRP): 3.75 × 10^5 per μl | LDH (platelets [2]; Day 12, PRP): 108 IU/L | Clotting time (platelets [2]; Day 13, PRP): 30 s | Count (platelets) (platelets [2]; Day 13, PRP): 3.81 × 10^5 per μl | LDH (platelets [2]; Day 13, PRP): 110 IU/L | Clotting time (platelets [2]; Day 14, PRP): 31 s | Count (platelets) (platelets [2]; Day 14, PRP): 3.80 × 10^5 per μl | LDH (platelets [2]; Day 14, PRP): 110 IU/L | Clotting time (platelets [2]; Day 15, PRP): 30 s | Count (platelets) (platelets [2]; Day 15, PRP): 3.76 × 10^5 per μl | LDH (platelets [2]; Day 15, PRP): 109 IU/L | Clotting time (platelets [2]; Day 16, PRP): 29 s | Count (platelets) (platelets [2]; Day 16, PRP): 3.75 × 10^5 per μl | LDH (platelets [2]; Day 16, PRP): 109 IU/L | Clotting time (platelets [2]; Day 17, PRP): 30 s | Count (platelets) (platelets [2]; Day 17, PRP): 3.74 × 10^5 per μl | LDH (platelets [2]; Day 17, PRP): 108 IU/L | Clotting time (platelets [2]; Day 18, PRP): 30 s | Count (platelets) (platelets [2]; Day 18, PRP): 3.76 × 10^5 per μl | LDH (platelets [2]; Day 18, PRP): 110 IU/L | Clotting time (platelets [2]; Day 19, PRP): 31 s | Count (platelets) (platelets [2]; Day 19, PRP): 3.74 × 10^5 per μl | LDH (platelets [2]; Day 19, PRP): 111 IU/L | Clotting time (platelets [2]; Day 20, PRP): 30 s | Count (platelets) (platelets [2]; Day 20, PRP): 3.74 × 10^5 per μl | LDH (platelets [2]; Day 20, PRP): 111 IU/L | Clotting time (platelets [2]; Day 21, PRP): 30 s | Count (platelets) (platelets [2]; Day 21, PRP): 3.56 × 10^5 per μl | LDH (platelets [2]; Day 21, PRP): 103 IU/L | Clotting time (platelets [2]; Day 22, PRP): 31 s | Count (platelets) (platelets [2]; Day 22, PRP): 3.42 × 10^5 per μl | LDH (platelets [2]; Day 22, PRP): 105 IU/L | Clotting time (platelets [2]; Day 23, PRP): 26 s | Count (platelets) (platelets [2]; Day 23, PRP): 3.28 × 10^5 per μl | LDH (platelets [2]; Day 23, PRP): 122 IU/L | Clotting time (platelets [2]; Day 24, PRP): 29 s | Count (platelets) (platelets [2]; Day 24, PRP): 2.91 × 10^5 per μl | LDH (platelets [2]; Day 24, PRP): 159 IU/L | Clotting time (platelets [2]; Day 25, PRP): 26 s | Count (platelets) (platelets [2]; Day 25, PRP): 2.24 × 10^5 per μl | LDH (platelets [2]; Day 25, PRP): 279 IU/L | Clotting time (platelets [3]; Day 1): 29 s | Count (platelets) (platelets [3]; Day 1): 2.41 × 10^5 per μl | LDH (platelets [3]; Day 1): 98 IU/L | Clotting time (platelets [3]; Day 2): 30 s | Count (platelets) (platelets [3]; Day 2): 2.41 × 10^5 per μl | LDH (platelets [3]; Day 2): 96 IU/L | Clotting time (platelets [3]; Day 3): 30 s | Count (platelets) (platelets [3]; Day 3): 2.40 × 10^5 per μl | LDH (platelets [3]; Day 3): 97 IU/L | Clotting time (platelets [3]; Day 4): 31 s | Count (platelets) (platelets [3]; Day 4): 2.40 × 10^5 per μl | LDH (platelets [3]; Day 4): 98 IU/L | Clotting time (platelets [3]; Day 5): 32 s | Count (platelets) (platelets [3]; Day 5): 2.38 × 10^5 per μl | LDH (platelets [3]; Day 5): 99 IU/L | Clotting time (platelets [3]; Day 6): 30 s | Count (platelets) (platelets [3]; Day 6): 2.41 × 10^5 per μl | LDH (platelets [3]; Day 6): 101 IU/L | Clotting time (platelets [3]; Day 7): 28 s | Count (platelets) (platelets [3]; Day 7): 2.42 × 10^5 per μl | LDH (platelets [3]; Day 7): 100 IU/L | Clotting time (platelets [3]; Day 8): 28 s | Count (platelets) (platelets [3]; Day 8): 2.40 × 10^5 per μl | LDH (platelets [3]; Day 8): 102 IU/L | Clotting time (platelets [3]; Day 9): 31 s | Count (platelets) (platelets [3]; Day 9): 2.38 × 10^5 per μl | LDH (platelets [3]; Day 9): 100 IU/L | Clotting time (platelets [3]; Day 10): 30 s | Count (platelets) (platelets [3]; Day 10): 2.38 × 10^5 per μl | LDH (platelets [3]; Day 10): 98 IU/L | Clotting time (platelets [3]; Day 11): 29 s | Count (platelets) (platelets [3]; Day 11): 2.35 × 10^5 per μl | LDH (platelets [3]; Day 11): 103 IU/L | Clotting time (platelets [3]; Day 12): 30 s | Count (platelets) (platelets [3]; Day 12): 2.34 × 10^5 per μl | LDH (platelets [3]; Day 12): 101 IU/L | Clotting time (platelets [3]; Day 13): 30 s | Count (platelets) (platelets [3]; Day 13): 2.34 × 10^5 per μl | LDH (platelets [3]; Day 13): 103 IU/L | Clotting time (platelets [3]; Day 14): 31 s | Count (platelets) (platelets [3]; Day 14): 2.35 × 10^5 per μl | LDH (platelets [3]; Day 14): 105 IU/L | Clotting time (platelets [3]; Day 15): 26 s | Count (platelets) (platelets [3]; Day 15): 2.28 × 10^5 per μl | LDH (platelets [3]; Day 15): 122 IU/L
